These molecules were tested on Plasmodium falciparum (assay: Antiplasmodial activity against chloroquine-sensitive Plasmodium falciparum D6 by LDH reporter assay).
Type: functional, organism-based

SMILES	IC50 [µM]
N=C(N)c1ccc(OCc2ccccc2COc2ccc(C(=N)N)cc2)cc1	0.313
N=C(N)c1ccc(COc2ccccc2OCc2ccc(C(=N)N)cc2)cc1	0.671
N=C(N)c1ccc(NC(=O)CCCCC(=O)Nc2ccc(C(=N)N)cc2)cc1	0.64
N=C(N)c1ccc(OCc2cccc(COc3ccc(C(=N)N)cc3)c2)cc1	0.085
c1cc(C2=NCCN2)ccc1CC1CCN(c2ccc(C3=NCCN3)cc2)CC1	0.402
c1cc(N2CCCN(c3ccc(C4=NCCN4)cc3)CC2)ccc1C1=NCCN1	0.148
c1cc(N2CCN(c3ccc(C4=NCCN4)cc3)CC2)ccc1C1=NCCN1	0.089
c1ccc2[nH]c(-c3ccc(N4CCN(c5ccc(-c6nc7ccccc7[nH]6)cc5)CC4)cc3)nc2c1	4.88
N=C(N)c1ccc(N2CCCN(c3ccc(C(=N)N)cc3)CC2)cc1	1.6
N=C(N)c1ccc(OCc2ccc(COc3ccc(C(=N)N)cc3)cc2)cc1	0.114
c1cc(N2CCCN(c3ccc(C4=NCCCN4)cc3)CC2)ccc1C1=NCCCN1	5.11
C(=C1CCN(c2ccc(C3=NCCN3)cc2)CC1)c1ccc(C2=NCCN2)cc1	0.84
c1cc(N2CCN(c3ccc(C4=NCCCN4)cc3)CC2)ccc1C1=NCCCN1	0.106
CCCCCCCCNC(=N)c1ccc(N2CCN(c3ccc(C(=N)NCCCCCCCC)cc3)CC2)cc1	0.138
CCCCCCCCCCCCNC(=N)c1ccc(N2CCN(c3ccc(C(=N)NCCCCCCCCCCCC)cc3)CC2)cc1	3.89
N=C(NC1CC1)c1ccc(N2CCCN(c3ccc(C(=N)NC4CC4)cc3)CC2)cc1	0.306
CCCCNC(=N)c1ccc(N2CCCN(c3ccc(C(=N)NCCCC)cc3)CC2)cc1	0.018

SMILES	IC50 [µM]
N=C(NC1CC1)c1ccc(N2CCN(c3ccc(C(=N)NC4CC4)cc3)CC2)cc1	0.358
CCCCCCCCCNC(=N)c1ccc(N2CCN(c3ccc(C(=N)NCCCCCCCCC)cc3)CC2)cc1	0.088
CCCCCCCCCCNC(=N)c1ccc(N2CCN(c3ccc(C(=N)NCCCCCCCCCC)cc3)CC2)cc1	0.075
CC(C)CCNC(=N)c1ccc(N2CCN(c3ccc(C(=N)NCCC(C)C)cc3)CC2)cc1	0.042
N=C(NC1CCCCCC1)c1ccc(N2CCN(c3ccc(C(=N)NC4CCCCCC4)cc3)CC2)cc1	0.036
N=C(NCCCO)c1ccc(N2CCN(c3ccc(C(=N)NCCCO)cc3)CC2)cc1	8.8
N=C(NC1CCC1)c1ccc(N2CCN(c3ccc(C(=N)NC4CCC4)cc3)CC2)cc1	0.007
CCC(C)CNC(=N)c1ccc(N2CCN(c3ccc(C(=N)NCC(C)CC)cc3)CC2)cc1 (centres undefined)	0.069
CCCCCCCNC(=N)c1ccc(N2CCN(c3ccc(C(=N)NCCCCCCC)cc3)CC2)cc1	0.048
N=C(NO)c1ccc(N2CCN(c3ccc(C(=N)NO)cc3)CC2)cc1	8.32
CCNC(=N)c1ccc(N2CCN(c3ccc(C(=N)NCC)cc3)CC2)cc1	0.124
CNC(=N)c1ccc(N2CCN(c3ccc(C(=N)NC)cc3)CC2)cc1	0.862
CCCNC(=N)c1ccc(N2CCN(c3ccc(C(=N)NCCC)cc3)CC2)cc1	0.029
N=C(NC1CCCCCCC1)c1ccc(N2CCN(c3ccc(C(=N)NC4CCCCCCC4)cc3)CC2)cc1	0.055
CCCCCNC(=N)c1ccc(N2CCN(c3ccc(C(=N)NCCCCC)cc3)CC2)cc1	0.021
CCCCCCNC(=N)c1ccc(N2CCN(c3ccc(C(=N)NCCCCCC)cc3)CC2)cc1	0.035
N=C(N)c1ccc(OCCCCCOc2ccc(C(=N)N)cc2)cc1 [PENTAMIDINE]	0.278
